Laboratory results as given in patent publication US11180615B2, “Cationic polyphosphazene compound, polyphosphazenes-drug conjugate compound and method for preparing same” (CNPHARM CO., LTD., priority 2016, dated 2021).

Key:
MCF-7 = assay: In vitro cytotoxicity (SRB method), MCF-7; type: cell-based; settings: MCF-7, mean ± SD, n = 3-4
From the text: (§1) Since the anticancer agent paclitaxel is well known to be clinically very efficacious against many different cancers, breast (MCF-7), ovarian (SK-OV3), non-small cell lung (A549) and stomach (SNU638) cancer cell lines were selected to test their in vitro cytotoxicity according to the literature method (SRB method) (Rita Song, et. al, J. Control. Release 105 (2005) 142-150).

SK-Ov3 = assay: In vitro cytotoxicity (SRB method), SK-Ov3; type: cell-based; settings: SK-Ov3, mean ± SD, n = 3-4
From the text: as §1

A-549 = assay: In vitro cytotoxicity (SRB method), A-549; type: cell-based; settings: A-549, mean ± SD, n = 3-4
From the text: as §1

SNU-638 = assay: In vitro cytotoxicity (SRB method), SNU-638; type: cell-based; settings: SNU-638, mean ± SD, n = 3-4
From the text: as §1

[1] = system: non-small cell lung cancer cell line A549; settings: versus Taxotere
[2] = system: gastric cancer cell line MKN-28; assay: Nude mouse xenograft trial, MKN-28
Method: Both tumor size and body weight of each were measured from the beginning of first injection to 40 days.

[3] = Critical micelle concentration by pyrene fluorescence method; type: physicochemical; settings: aqueous pyrene solution 6×10^−7 M
Method: As above-mentioned, the polyphosphazene-docetaxel conjugate of the present invention forms polymeric micelles in aqueous solution. In order for such polymer-drug conjugate to be clinically useful for IV injection, the solution stability of the micelles self-assembled from the polymer-drug conjugate is critical. Such a micelle stability is expressed as “critical micelle concentration (CMC),” which is measured by several methods, but the most widely used method is “pyrene fluorescence method” (K. Kalyanasundoram, et. al, J. Am. Chem. Soc. […], 99, 2039). According to the method the CMC value of the polyphosphazene-docetaxel conjugate of the present invention was measured as in the following:
An aqueous pyrene solution (6×10^−7 M) was prepared and using this solution a series of sample solutions of the polyphosphazene-paclitaxel conjugate of Example 20 was prepared in the concentration range of 5.0-0.0005% (w/w). Fluorescence spectra were measured at 339 nm (Iex) and 390 nm (Iem) and then from the ratio of the fluorescence intensities of band I and band III, the value of CMC was determined as shown in FIG. 4.

[4] = Biodegradability in buffer at 37° C. followed by GPC; type: physicochemical; settings: buffer pH 5.4, 37° C.
Method: Instrument: Yonglin GPC system
Column: Waters Hydrogel HR column (1×guard, 1×linear, 2×HR2)
Eluent: water/acetonitrile (8:2) (0.5% NaNO3)
Two sample solutions were prepared by dissolving the polyphosphazene-paclitaxel conjugate of Example 20 (250 mg) in a buffer solution (5 ml) at pH=5.4 and in another buffer solution (5 ml) at pH=7.4. The two sample solutions were slowly shaken at 37° C. in a water bath and 500 μl of the sample solution was taken at predetermined schedule (0.5, 1, 2, 4, 6, 8, 16 day after incubation) and freeze-dried. The dried samples were dissolved in tetrahydrofuran involving 0.2% t-butyl ammonium bromide and subjected to gel permeation chromatography (GPC).

With CC(=O)O[C@H]1C(=O)[C@@]2(C)[C@H]([C@H](OC(=O)c3ccccc3)[C@]3(O)C[C@H](OC(=O)[C@H](O)[C@@H](NC(=O)c4ccccc4)c4ccccc4)C(C)=C1C3(C)C)[C@]1(OC(C)=O)CO[C@@H]1C[C@@H]2O [Paclitaxel, reference compound] the IC50 (MCF-7; Homo sapiens, MCF7) was 3.47 ± 0.62 nM, the IC50 (SK-Ov3; Homo sapiens, SK-OV-3) was 15.3 ± 2.6 nM and the IC50 (A-549; Homo sapiens, A549) was 6.63 ± 2.84 nM. For the same molecule, the IC50 (SNU-638; Homo sapiens) was 10.9 ± 0.9 nM.
With “[NP(MPEG550)1.5(LysEt-2′-aconitic-docetaxel)0.5]n [Example 14]” the “antitumor activity against A549 tumor” value [1] was “even better antitumor activity than the reference Taxotere”, the “antitumor activity against MKN-28 gastric tumor” value ([2]; 10 and 20 mg/kg as docetaxel, day 1, 5, 9, 40 days, versus Taxotere 10 mg/kg) was “strong antitumor activity equivalent to Taxotere” and the “systemic toxicity versus Taxotere” value ([2]; judged from body weight, MKN-28 xenograft mice) was “lower systemic toxicity”.
Molecule “[NP(MPEG550)1.50(GlyLysEt-2′-succinylpaclitaxel)0.50]n [Example 21]” has an IC50 (MCF-7) of 317 ± 141 nM, an IC50 (SK-Ov3) of 6960 ± 142 nM and an IC50 (A-549) of 1540 ± 41.8 nM. For the same molecule, the IC50 (SNU-638) was 5411 ± 46.6 nM.
With “[NP(MPEG550)1.50(LysEt)0.2(LysEt-2′-succinylpaclitaxel)0.3]n [Example 20]” the “critical micelle concentration (CMC)” value [3] was 41 mg/L, the “degradation of polyphosphazene backbone in acidic media” value [4] was “continuously degradable in acidic media” and the IC50 (MCF-7) was 165 ± 86.5 nM. The IC50 (SK-Ov3) was 588 ± 47.8 nM, the IC50 (A-549) was 170 ± 48.3 nM and the IC50 (SNU-638) was 364 ± 202 nM.
